Measurements published in US8859628B2, “Method for preventing, treating and diagnosing disorders of protein aggregation” (priority 2003, dated 2014).
“Also recorded” adds a separate entry of the source.

Tests used:
Assay type in all cases: in vivo, mouse
wild type mice = test: Control experiment: survival and general condition of treated wild type mice
non-Tg littermates = test: Morris Water Maze performance of treated non-Tg littermates; details: treated vs untreated non-Tg
Experimental: Behavioral tests—After non-spatial pre-training, mice underwent place discrimination training for 5 days with 4 trials per day. Behavioral data was analyzed using a mixed model of factorial analysis of variance (ANOVA) with drug or genotype and training sessions as repeated measure factors.
(§1) Behavioral Test—Reversal Study—Mice entered the Morris water maze test with a hidden platform on day one without pretraining. Mice were tested for 3 days with six trials per day. On the fourth day, the platform was removed from the pool and each mouse received one 30-s swim probe trial. On the last day the animals underwent a cue test in order to evaluate swimming ability, eye sight and general cognition. The cue test is composed at the platform being placed in a different quadrant than that used for testing and is tagged with a flag. Animals are allowed 60 s to find the platform. […] Behavioural data was analysed using a mixed model of factorial analysis of variance (ANOVA) with drug or genotype and training sessions as repeated measure factors.

TgCRND8 mice = test: Morris Water Maze, spatial reference memory version, three-day trial paradigm (treatment/reversal study); details: three-day paradigm
Experimental: A cohort entered the study at 5 months of age and outcomes were analyzed at 6-months of age. The body weight, coat characteristics and in cage behavior was monitored. All experiments were performed according to the Canadian Council on Animal Care guidelines.
as §1
The cognitive function of TgCRND8 mice was assessed using the spatial reference memory version of the Morris Water Maze using a three day trial paradigm (FIGS. 4-8).
Behavioural data was analysed using a mixed model of factorial analysis of variance (ANOVA) with drug and genotype as between subject variables and training sessions as within subject variable.
In these experiments, the dosage and oral administration of compounds, and the behavioral and neurochemical assays were the same as those employed in the above treatment experiments.

O[C@H]1[C@H](O)[C@@H](O)[C@H](O)[C@@H](O)[C@@H]1O [Scyllo-Inositol, scyllo-inositol]
survival, weight, fur condition, cage behavior (wild type mice): had no effect either on survival or on other parameters such as weight, fur condition or cage behavior | effect on performance of non-Tg mice (non-Tg littermates): had no effect on the performance of non-Tg mice; also recorded: not effected | cognitive function, treated TgCRND8 mice vs non-Tg littermates (words) (TgCRND8 mice; 1 month treatment from 5 months of age): indistinguishable from non-Tg littermates on all days; also recorded: comparable to scyllo-inositol treated non-Tg littermates | cognitive function, treated TgCRND8 mice vs treated non-Tg littermates (TgCRND8 mice; two months of treatment from 5 months of age): indistinguishable from scyllo-inositol treated non-Tg littermates; also recorded: remained indistinguishable from non-Tg littermates
